Here are results for 104 molecules from PubChem BioAssay AID1996.

≈ marks a conversion by molar mass, not a printed value.

For this series the following is noted: buffer; pH 7.4; 200.0 µM.
As to `O=C(Nc1ccccc1F)c1ccccc1C(=O)Nc1ccccc1F`, the kinetic solubility was determined as 32.5 µg/mL (≈ 92.2 µM). The figure for `Cc1onc(-c2ccccc2)c1-c1ccc(S(N)(=O)=O)cc1` is over 47.2 µg/mL; for `O=C(O)C(Cc1ccc(O)cc1)N1C(=O)C2CCCCC2C1=O` (centres undefined) it is over 47.6 µg/mL. `COc1ccc(NC(=O)COC(=O)CN2C(=O)C3CC=CCC3C2=O)c([N+](=O)[O-])c1` (centres undefined) registered a kinetic solubility of over 62.6 µg/mL.

Take `CN(Cc1ccccc1)S(=O)(=O)c1ccc2c(c1)n(C)c(=O)c(=O)n2C`: the solubility (kinetic) worked out at 1.4 µg/mL (≈ 3.75 µM). `COc1ccc(OC)c(N2C(=O)CC(=O)NC2=O)c1` returned a solubility (kinetic) of over 39.6 µg/mL. `CCOC(=O)N1CCN(C(=O)COC(=O)c2ccc(O)cc2O)CC1` had a kinetic solubility of over 52.9 µg/mL. Then `O=C(c1ccc(-c2ccc(Cl)cc2Cl)o1)N1CCOCC1`, with 4.2 µg/mL (≈ 12.9 µM); and `Cc1ccccc1C(=O)N1CCC(C(=O)NC2CCCCC2)CC1`, with 44.4 µg/mL (≈ 135 µM); and `Cc1ccc(NC(=O)CSc2nnc(/N=C/N(C)C)s2)cc1`, with over 50.3 µg/mL. With `Cc1cccc(NC(=O)CCN2CC(C)CC(C)C2)c1.Cl` (centres undefined), the solubility (kinetic) is over 46.6 µg/mL.

Molecule `O=C(COC(=O)c1ccccc1)NC1CCCC1` gave a kinetic solubility of over 37.1 µg/mL. As for `NC(=O)CN1C(=O)C(=O)N(Cc2ccc(F)cc2)C1=O`, the solubility (kinetic) was over 41.9 µg/mL. Then `CC(C)C(NC(=O)c1ccc(F)cc1)C(=O)NCC1CCCO1` (centres undefined), with over 48.4 µg/mL. Molecule `O=[N+]([O-])c1ccccc1S(=O)(=O)c1ccccc1[N+](=O)[O-]` had a solubility (kinetic) of 0.8 µg/mL (≈ 2.6 µM). `CCc1noc(C)c1C(=O)OCC(=O)NCc1ccccc1` had a kinetic solubility of over 45.3 µg/mL. `CC(C)c1ccc(CN2CCSCC2)cc1` returned a solubility (kinetic) of 1.1 µg/mL (≈ 4.67 µM). Regarding `NC(N)=NC(N)=Nc1ccccc1`, the solubility (kinetic) was over 26.6 µg/mL. The figure for `O=C(O)COCC(=O)NCc1csc2ccc(Cl)cc12` is over 47.1 µg/mL. Turning to `Cc1cc(NC(=O)COC(=O)c2cnccn2)ccc1Br`, the solubility (kinetic) was over 52.5 µg/mL. Then `O=C(Nc1ccc2c(c1)C(=O)OC2)c1ccccc1Cl`, with 41 µg/mL (≈ 143 µM); and `CCCCN(CCCC)c1ncnc2nc[nH]c12`, with 29.8 µg/mL (≈ 120 µM); and `CNC(=O)c1csc(-c2cccs2)n1`, with 33.3 µg/mL (≈ 148 µM). The figure for `O=C(COC(=O)c1ccc(Cl)c(Cl)c1)NC1CCCC1` is 2 µg/mL (≈ 6.33 µM); for `COC(=O)c1oc(-c2ccccc2)nc1C` it is 15.6 µg/mL (≈ 71.8 µM); for `Cc1cc(C(=O)NC2Cc3ccccc3C2)c(C)o1` it is over 38.3 µg/mL. In the case of `O=C(O)c1ccccc1-c1ccccc1C(=O)Nc1ccc(F)cc1`, the kinetic solubility was over 50.3 µg/mL.

`NS(=O)(=O)c1ccc(CNC(=O)c2ccc3c(c2)OCO3)cc1` came in with a solubility (kinetic) of over 50.2 µg/mL. The figure for `CCc1sc(C(=O)Nc2nc(C)cs2)cc1C` is 7.3 µg/mL (≈ 27.4 µM); for `COc1ccccc1/C=N/OC(=O)c1ccc(C)cc1` it is under 0.6 µg/mL. Consider `Cl.O=C(/C=C/c1cccc(F)c1)NCCCn1ccnc1`, for which the kinetic solubility is over 46.5 µg/mL. Consider `COc1cccc(Nc2nc(-c3ccccc3O)nc3ccccc23)c1`, for which the solubility (kinetic) is under 0.2 µg/mL. Molecule `CC(=O)c1cccc(NC(=O)COc2cc(C)on2)c1` returned a kinetic solubility of over 41.1 µg/mL. In turn, `Cc1ccc(NC(=O)CSc2nc3sc(C)cc3c(=O)n2C)cc1` came in with a kinetic solubility of under 0.3 µg/mL.

Take `COc1ccccc1NC(=O)CNC(c1ccccc1)c1ccccc1`: the kinetic solubility was found to be 1.2 µg/mL (≈ 3.46 µM). Turning to `O=C1CN(S(=O)(=O)c2cc(Br)ccc2Br)CCN1`, the solubility (kinetic) was over 59.7 µg/mL.

`COc1ccc(Cl)cc1C(=O)n1cnc2ccccc21` had a kinetic solubility of over 43 µg/mL. The figure for `COc1ccc(Oc2nc(-c3ccccn3)nc3ccccc23)cc1` is 17.6 µg/mL (≈ 53.4 µM).

As for `COc1cc(C(=O)OCC(=O)N2CCCCCC2)c([N+](=O)[O-])cc1OC`, the kinetic solubility is over 55 µg/mL. Then `Cn1cc([N+](=O)[O-])c(C(=O)NCc2ccco2)n1`, with over 37.5 µg/mL; and `CCOc1cc(N2CCOCC2)c(OCC)cc1NC(=O)CSc1ncccc1C(=O)O`, with over 69.2 µg/mL; and `COC(=O)c1cc(S(=O)(=O)NCCCc2ccco2)c[nH]1`, with over 46.9 µg/mL. The figure for `O=C(O)CC1(CC(=O)Nc2cccc(C(F)(F)F)c2)CCCC1` is over 49.4 µg/mL; for `Cc1cc(-c2ccccc2)c2c(n1)sc1c(O)cc(=O)[nH]c12` it is over 46.3 µg/mL; for `Cn1c(O)c(C=NCCN2CCNCC2)c(=O)[nH]c1=O` it is over 42.2 µg/mL. The figure for `CC(CN1CCCCC1)OC(=O)c1ccc2c(c1)OCCO2.Cl` (centres undefined) is over 51.3 µg/mL; for `CCC(=NCc1ccco1)c1c(O)n(C)c(=O)n(C)c1=O` it is over 43.7 µg/mL. As for `CC(=O)Nc1ccccc1C(=O)OCC(=O)Nc1ncccn1`, the solubility (kinetic) is over 47.1 µg/mL. In the case of `Cc1cc(C)n(CCCNC(=O)c2ccc(C)o2)n1`, the solubility (kinetic) is over 39.2 µg/mL. The figure for `CC(C)N(c1ccccc1)c1ccc(NC(=S)NCCN(C)C)cc1` is 44 µg/mL (≈ 123 µM); for `CC1CCC(N(C)C2CCN(C)CC2)CC1` (centres undefined) it is 22.4 µg/mL (≈ 99.8 µM); for `CC(=O)N/C(=N/c1nc(C)cc(C)n1)Nc1cccc(C)c1C` it is 4.9 µg/mL (≈ 15.7 µM). Then `Cn1c(=O)c2cc3ccccc3nc2n(C)c1=O`, with 4.3 µg/mL (≈ 17.8 µM); and `Cc1ccccc1OCC(=O)NCCNC(=O)c1ccncc1`, with over 47 µg/mL. Then `COc1ccc(C2NC(=O)CCC2[N+](=O)[O-])cc1OC` (centres undefined), with over 42 µg/mL. `CC(=O)Nc1ccc(Nc2cc(C)c3ccccc3n2)cc1` gave a kinetic solubility of 41.6 µg/mL (≈ 143 µM). The figure for `CCOC(=O)c1nc(NCc2ccccc2)sc1C` is 9.5 µg/mL (≈ 34.4 µM); for `Cc1ccc(Cl)cc1NS(=O)(=O)Cc1ccccc1` it is 9 µg/mL (≈ 30.4 µM). The figure for `CN(C(=O)COC(=O)/C=C/c1ccccc1[N+](=O)[O-])c1ccccc1` is 47.5 µg/mL (≈ 140 µM); for `CC1CCN(C(C(=O)O)c2ccccc2)CC1.Cl` (centres undefined) it is over 40.5 µg/mL. `O=C(COc1cccnc1[N+](=O)[O-])NCc1ccc(F)cc1` yielded a solubility (kinetic) of over 45.8 µg/mL. In the case of `O=C(NNC(=O)c1cccs1)c1ccc(Cl)nc1`, the kinetic solubility is over 42.3 µg/mL. In turn, `O=C(c1ccc(Cn2cc([N+](=O)[O-])cn2)o1)N1CCCCCC1` came in with a kinetic solubility of over 47.7 µg/mL. The figure for `COc1cccc(OP(=O)(Nc2ccccc2)Oc2cccc(OC)c2)c1` is under 0.8 µg/mL; for `Cc1c(NC(=O)c2ccccc2NC(=O)c2ccccc2)cccc1C(=O)O` it is 54.5 µg/mL (≈ 146 µM); for `Cc1c(CCO)c(=O)n2c([nH]c3ccccc32)c1C#N` it is 19 µg/mL (≈ 71.1 µM). `O=C(COc1ccc2ccccc2c1)NCC1CCCO1` (centres undefined) came in with a kinetic solubility of 36.9 µg/mL (≈ 129 µM). This solubility kinetic is about 1.9-fold higher than that of the molecule before. Then `Cc1cc(CSc2ccccc2C(=O)O)on1`, with over 37.4 µg/mL. The figure for `CCC(C)NC(=O)c1ccc2c(c1)N(Cc1ccccc1)C(=O)CS2` (centres undefined) is 3.6 µg/mL (≈ 10.2 µM). Then `CCOc1ccc(NC(=O)COC(=O)Cn2nc(C)c([N+](=O)[O-])c2C)cc1OCC`, with over 63.1 µg/mL; and `CCN(C(=O)COc1ccc(N(C)S(=O)(=O)c2ccc(NC(C)=O)cc2)cc1)C1CCCCC1`, with 18.9 µg/mL (≈ 38.8 µM); and `Cc1ccc(OCCCCCCN2CCNCC2)cc1.O=C(O)C(=O)O`, with over 55 µg/mL.

Consider `Cc1ccc(O)c(NC(=O)C2CCCCC2)c1`, for which the solubility (kinetic) was found to be 33.3 µg/mL (≈ 143 µM).

In the case of `C/C(=N\N=C(N)N)c1ccccc1`, the kinetic solubility is over 26.4 µg/mL.

`CN(CC(=O)Nc1ccc(Cl)cc1)C(=O)Cc1c(F)cccc1Cl` registered a kinetic solubility of 14.6 µg/mL (≈ 39.5 µM). The figure for `Cl.NCCc1cnc[nH]1` is over 27.6 µg/mL; for `Cc1cc[n+](CCc2ccccc2)cc1C.[Br-]` it is over 43.8 µg/mL. Consider `Cc1ccc2c(c1)C1C[N+](C)(CC(=O)Nc3ccccc3Cl)CCC1N2C(=O)c1ccccc1Cl.[Cl-]` (centres undefined), for which the solubility (kinetic) was over 81.7 µg/mL. For the molecule `NC(=O)Cn1ccc(O)c(Cc2ccc(Cl)cc2Cl)c1=O`, the kinetic solubility is over 49.1 µg/mL. As for `COc1cc(CN2CCc3c([nH]c4ccccc34)C2)cc(OC)c1`, the solubility (kinetic) was determined as 26 µg/mL (≈ 80.6 µM). Molecule `O=C(c1ccc2c(c1)OCO2)C1CCCN(CC2CCCCC2)C1` (centres undefined) yielded a kinetic solubility of over 49.4 µg/mL. As for `COc1ccc(OC)c(C2=NOC(C(=O)NCc3cccnc3)C2)c1` (centres undefined), the solubility (kinetic) amounted to 47.8 µg/mL (≈ 140 µM). With `O=C(CNC(=O)c1ccco1)N/N=C/c1ccc(O)cc1O`, the solubility (kinetic) was over 45.5 µg/mL.

`CCOc1ccc(Br)cc1CNCc1cccnc1` gave a solubility (kinetic) of over 48.2 µg/mL. `CC(=O)NCCc1nc2ccccc2n1CCOc1ccccc1` displayed a kinetic solubility of over 48.5 µg/mL.

Molecule `Cc1ccc(S(=O)(=O)N2CCC(C(=O)Nc3cccnc3)CC2)cc1` yielded a solubility (kinetic) of over 53.9 µg/mL. The figure for `Nc1ccc(C2(c3ccc(N)cc3)OC(=O)c3ccccc32)cc1` is 32.1 µg/mL (≈ 101 µM).

In the case of `COc1ccc(NC(=O)Nc2ccc3c(c2)CCC3)c(OC)c1`, the solubility (kinetic) was under 0.3 µg/mL.

In turn, `COc1cc(OC)c(C(=O)N2CCCC2)cc1OC` displayed a kinetic solubility of over 39.8 µg/mL.

Regarding `CN1CC(=O)N=C1N.Cl`, the kinetic solubility was over 22.4 µg/mL. The figure for `Cc1cc(C(=O)N(C)C2CCCCC2)no1` is over 33.3 µg/mL; for `O=C(NCc1ccccc1Cl)c1cc2ccccc2oc1=O` it is under 0.7 µg/mL; for `CCN(CC)C(=O)c1cccc(C)c1` it is 19.6 µg/mL (≈ 102 µM).

Molecule `Cc1ccc(S(=O)(=O)NCc2ccccc2)cc1C(=O)NCc1ccccn1` registered a solubility (kinetic) of 48.1 µg/mL (≈ 122 µM). Take `COc1ccccc1N1CC(C(=O)Nc2ccc(C)c(S(=O)(=O)N3CCOCC3)c2)CC1=O` (centres undefined): the kinetic solubility is over 71 µg/mL. Then `O=C(Nc1nc2ccc(Cl)cc2s1)C1CC1`, with 4.8 µg/mL (≈ 19 µM); and `O=C(NNC(=S)NCCCN1CCOCC1)c1ccncc1`, with over 48.5 µg/mL; and `Clc1nc2ccccc2nc1-c1ccccc1`, with 0.6 µg/mL (≈ 2.49 µM). The figure for `COc1cccc(CNC(=O)Cn2nc(C)c([N+](=O)[O-])c2C)c1` is over 47.7 µg/mL; for `COc1ccc(CC(=O)Nc2cccc3c2CCCC3)cc1` it is 1.8 µg/mL (≈ 6.09 µM).

Molecule `Cc1nc(CCNS(=O)(=O)c2cccnc2)cs1` came in with a solubility (kinetic) of over 42.5 µg/mL. Then `Cc1nn(Cc2cccc(C(=O)O)c2)c(C)c1[N+](=O)[O-]`, with over 41.3 µg/mL; and `CN(C)C(=O)Oc1ccc(NC(=O)N2CCOCC2)cc1`, with 43.9 µg/mL (≈ 150 µM).

Molecule `Cc1ccc(S(=O)(=O)CCC(=O)NC2CCCC2)cc1` registered a kinetic solubility of over 44.3 µg/mL.
